Data reported in US7220741B2, “1,4-diazabicycloalkane derivatives, their preparation and use” (NeuroSearch A/S, priority 2002, dated 2007).
Structures can show the parent of a compound that is named as a salt.

Tested on: not given
Assay: not given
Settings: not given

| Compound | melting point [°C] |
| --- | --- |
| O=C(O)/C=C/C(=O)O.c1ccc(-c2ccc(-c3nnc(N4CCN5CCC4CC5)o3)cc2)cc1 | 238 to 239 |
| O=C(O)/C=C/C(=O)O.c1cncc(-c2nnc(N3CCN4CCC3CC4)o2)c1 | 176.8 to 177.5 |
| O=C(O)/C=C/C(=O)O.c1coc(-c2nnc(N3CCN4CCC3CC4)o2)c1 | 175 |
| O=C(O)/C=C/C(=O)O.c1ccc2cc(-c3nnc(N4CCN5CCC4CC5)o3)ccc2c1 | 194.6 to 195.7 |
| O=C(O)/C=C/C(=O)O.c1cc(-c2nnc(N3CCN4CCC3CC4)o2)ccn1 | 165.9 to 166.8 |
| Clc1ccc(-c2nnc(N3CCN4CCC3CC4)o2)cc1.O=C(O)/C=C/C(=O)O | 184.3 to 185.8 |
| COc1cccc(-c2nnc(N3CCN4CCC3CC4)o2)c1.O=C(O)/C=C/C(=O)O | 126 to 164 |
| COc1ccc(-c2nnc(N3CCN4CCC3CC4)o2)cc1.O=C(O)/C=C/C(=O)O | 190.1 to 191.2 |
| O=C(O)/C=C/C(=O)O.c1csc(-c2nnc(N3CCN4CCC3CC4)o2)c1 [Compound D5, 4-[5-(2-Thienyl)-1,3,4-oxadiazol-2-yl]-1,4-diazabicyclo[3.2.2]nonane fumaric acid salt] | 161.8 to 162.7 |

Target: T1, α7-subtype of nicotinic receptors (Rattus norvegicus, UniProt Q05941)
T1 construct: Cerebral cortices from male Wistar rats (150–250 g) are homogenised; from tissue; host or cells: rat cerebral cortex membrane homogenate (male Wistar rats)
T1 sequence (Q05941 23-502): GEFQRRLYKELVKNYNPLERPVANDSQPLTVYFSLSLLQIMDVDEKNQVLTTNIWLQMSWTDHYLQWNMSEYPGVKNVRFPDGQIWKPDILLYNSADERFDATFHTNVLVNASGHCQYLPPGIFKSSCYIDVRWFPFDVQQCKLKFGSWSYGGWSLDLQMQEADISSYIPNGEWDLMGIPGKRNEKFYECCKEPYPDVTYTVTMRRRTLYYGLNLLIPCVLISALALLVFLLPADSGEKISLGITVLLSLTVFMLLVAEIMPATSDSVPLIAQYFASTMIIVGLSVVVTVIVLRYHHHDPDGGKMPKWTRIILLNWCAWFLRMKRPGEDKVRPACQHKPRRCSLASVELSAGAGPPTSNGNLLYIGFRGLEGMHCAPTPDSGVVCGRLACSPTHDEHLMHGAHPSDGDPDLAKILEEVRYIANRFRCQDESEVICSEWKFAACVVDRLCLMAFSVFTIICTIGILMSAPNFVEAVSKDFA
Assay: In vitro inhibition of 3H-α-bungarotoxine binding in rat brain
Settings: cerebral cortices from male Wistar rats, homogenate; 3H-α-bungarotoxine 2 nM; 2 hours at 37° C.

| Compound | IC50 [nM] |
| --- | --- |
| c1ccc(-c2nnc(N3CCN4CCC3CC4)s2)cc1 [Compound 1A, 4-(5-Phenyl-1,3,4-thiadiazol-2-yl)-1,4-diazabicyclo[3.2.2]nonane fumaric acid salt] | 6.7 |
| c1ccc(-c2nnc(N3CCN4CCC3CC4)o2)cc1 [Compound D1, 4-(5-Phenyl-1,3,4-oxadiazol-2-yl)-1,4-diazabicyclo[3.2.2]nonane fumaric acid salt] | 5.8 |
| O=C(O)/C=C/C(=O)O.c1csc(-c2nnc(N3CCN4CCC3CC4)o2)c1 [Compound D5, 4-[5-(2-Thienyl)-1,3,4-oxadiazol-2-yl]-1,4-diazabicyclo[3.2.2]nonane fumaric acid salt] | 22 |
